# Results: US9226929B2, “Pharmaceutically active disubstituted triazine derivatives” (Bayer Intellectual Property GMBH, priority 2011, dated 2016)
# Experiments:
# Format in all cases: cell-based
# [1] = system: LPS-induced TNF alpha release in PBMCs; assay: TNF alpha Release Assay; settings: Homo sapiens, PBMC, 1 μg/mL LPS, 6 h, read-out: TNF alpha release (activity range), IC50
# Description: 3.3 TNF alpha Release Assay
# Freshly isolated peripheral blood mononuclear cells (PBMCs) were seeded in 96-well cell culture plates with 200,000 cells in 100 μl cell culture medium (DMEM cell culture medium+glutamine from PAN Biotech GmbH, Aidenbach, Germany) supplemented with 10% fetal calf serum (PAA Laboratories GmbH, Pasching, Austria) per well and incubated overnight at 37° C., 5% CO2. To each well, 100 μL cell culture medium with 2× concentrated test compounds diluted from 10 mM DMSO stocks, or 100 μL DMEM with 0.4% DMSO for control wells, was added. The compounds of general formula (I) summarized in Table 6 were used in this assay. After incubation for 1 h at 37° C., 5% CO2, cells were stimulated with 1 μg/mL LPS (Lipopolysaccharides, Sigma, catalog #L4391-1 MG; 1 mg/ml stock solution), or left untreated for negative controls, and plates were incubated for 6 h at 37° C./5% CO2. The cell culture plates were centrifuged at 2000 rpm for 5 minutes, and supernatants were transferred to fresh 96-well polypropylene plates. 25 μL of supernatants were transferred into 96-well-plates of the human TNF alpha-tissue culture kit (Meso Scale Discovery, Gaithersburg, Md., USA), and manufacturer's instructions were followed for analysis of TNF alpha levels. […]
# MDAMB468 cells = assay: Cell Viability Assay, MDAMB468 cells; settings: Homo sapiens, MDA-MB-468; 72 h, Cell Titer Glo; read-out: Cell Viability - MDAMB468 cells (activity range), IC50
# Description: (§1) 3.4 Cell Viability Assays
# (§2) Hela- or MDAMB468-Cells were maintained in RPMI 1640 or McCoy's 5A cell culture medium+glutamine (PAN Biotech GmbH, Aidenbach, Germany; order no. PO4-22100; PO4-05500) supplemented with 10% fetal calf serum “Gold” (PAA Laboratories GmbH, Pasching, Austria; order no. A15-151) and grown at 37° C., 5% CO2. For the cell viability assay, cells were seeded with a density of 400 (Hela cells, DSMZ Braunschweig order no. ACC57) or 800 (MDAMB468 cells, ATCC order no. HTB-132) per well in 25 μL in 384-well plates (Greiner Bio-One, Frickenhausen, Germany; order no. 781080). After overnight incubation at 37° C./5% CO2, 25 nL or 75 nL compound were added to each sample well by using BIOMEK FXP Laboratory Automation Workstation (Beckman Coulter, USA). Wells with cells and 0.1% or 0,3% DMSO in culture medium were used as positive controls, wells with cells and 10 μM staurosporine in culture medium were used as negative controls. The cells were incubated with the compounds for 72 h at 37° C./5% CO2. For measurement of cell viability 25 μL Cell Titer Glo reagent (Promega, Madison, USA; order no. G7573), 1:2 diluted with cell culture medium, was added to each well. The 384we11-plates were placed for 2 min on a orbital microplate shaker and incubated for further 10 min at room temperature to stabilize the luminescence signal.
# (§3) Luminescence was measured by Envision Plate Reader (Perkin Elmer, USA). IC50 values were calculated with the software Excel Fit (IDBS, Guildford, UK) from 3-fold dilution series comprising at least 8 concentrations in duplicates.
# Hela cells = assay: Cell Viability Assay, Hela cells; settings: Homo sapiens, 72 h, Cell Titer Glo, read-out: Cell Viability - Hela cells (activity range), IC50
# Description: as §1, §2, §3
Compound,IC50 [1],IC50 (MDAMB468 cells),IC50 (Hela cells)
"NS(=O)(=O)Cc1cccc(Nc2ncnc(N3CCCCC3)n2)c1 [Compound B1, 3-[(4-(Piperidin-1-yl)-1,3,5-triazin-2-yl)amino]benzenemethane sulfonamide]",> 10 µM,,
"COC[C@H]1CCCN1c1ncnc(Nc2cccc(CS(N)(=O)=O)c2)n1 [Compound B17, (R)-3-[(4-(2-(Methoxymethyl)pyrrolidin-1-yl)-1,3,5-triazin-2-yl)amino]benzenemethanesulfonamide]",1 to 10 µM,,
"NS(=O)(=O)Cc1cccc(Nc2ncnc(N3CCc4nc[nH]c4C3)n2)c1 [Compound B44, 3-[(4-(6,7-Dihydro-3H-imidazo[4,5-c]pyridin-5(4H)-yl)-1,3,5-triazin-2-yl)amino]benzenemethanesulfonamide]",,> 10 µM,> 10 µM
"NS(=O)(=O)Cc1cccc(Nc2ncnc(N3CCc4ncsc4C3)n2)c1 [Compound B45, 3-[(4-(6,7-Dihydrothiazolo[5,4-c]pyridin-5(4H)-yl)-1,3,5-triazin-2-yl)amino]benzenemethanesulfonamide]",,1 to 10 µM,1 to 10 µM
"NS(=O)(=O)Cc1cccc(Nc2ncnc(N3Cc4cn[nH]c4C3)n2)c1 [Compound B51, 3-[(4-(Pyrrolo[3,4-c]pyrazol-5(1H,4H,6H)-yl)-1,3,5-triazin-2-yl)amino]-benzenemethanesulfonamide]",,> 10 µM,> 10 µM
